According to the NIST ThermoML archive (doi:10.1016/j.jct.2018.02.022):

Experiment: xn = mol fraction of the nth substance listed
Conditions: 92.3 kPa, Liquid; for viscosity: Concentric cylinders viscometry; for speed of sound: Frequency=3 MHz, Single path-length method; for mass density: Vibrating tube method

OCC(O)CO [glycerol] + O
Conditions | mass density, 293.15 K [kg/m3] | mass density, 298.15 K [kg/m3] | speed of sound, 293.15 K [m/s] | speed of sound, 298.15 K [m/s] | viscosity, 293.15 K [mPa·s] | viscosity, 298.15 K [mPa·s]
x1 = 0.011 | 1010.85 | 1009.54 | 1505.6 | 1518.5 | – | –
x1 = 0.021 | 1021.71 | 1020.28 | 1526.4 | 1538 | – | –
x1 = 0.0302 | 1031.17 | 1029.64 | 1544.8 | 1555.4 | – | –
x1 = 0.0398 | 1040.58 | 1038.94 | 1563.4 | 1572.8 | – | –
x1 = 0.0546 | 1054.09 | 1052.3 | 1590.1 | 1598 | – | –
x1 = 0.0651 | 1062.84 | 1060.94 | 1608.2 | 1615 | – | –
x1 = 0.0721 | 1068.61 | 1066.65 | 1619.8 | 1625.8 | – | –
x1 = 0.0793 | 1073.97 | 1071.95 | 1630.9 | 1636.2 | – | –
x1 = 0.0898 | 1081.8 | 1079.69 | 1646.9 | 1651.3 | – | –
x1 = 0.0998 | 1088.82 | 1086.64 | 1661.3 | 1664.9 | 3.277 | 2.631
x1 = 0.1198 | 1101.67 | 1099.36 | 1687.5 | 1689.5 | – | –
x1 = 0.1549 | 1121.66 | 1119.16 | 1727.7 | 1727.3 | 5.662 | 4.416
x1 = 0.2024 | 1143.7 | 1141.01 | 1770.2 | 1767.4 | – | –
x1 = 0.2534 | 1162.81 | 1159.99 | 1804.7 | 1800 | 13.67 | 10.4
x1 = 0.2959 | 1176 | 1173.1 | 1826.9 | 1821 | 19.73 | 14.91
x1 = 0.3504 | 1190.05 | 1187.09 | 1846.7 | 1841.6 | 30.2 | 22.91
x1 = 0.4006 | 1200.88 | 1197.86 | 1863.9 | 1856.1 | 45.08 | 33.73
x1 = 0.4477 | 1209.47 | 1206.42 | 1874.9 | 1866.5 | 63.42 | 46.86
x1 = 0.4983 | 1217.48 | 1214.4 | 1884.4 | 1875.4 | 90.21 | 65.72
x1 = 0.5471 | 1224.33 | 1221.23 | 1891.7 | 1882.4 | 124.25 | 89.21
x1 = 0.6046 | 1231.03 | 1227.93 | 1898.3 | 1888.6 | 182.07 | 126.31
x1 = 0.6469 | 1235.49 | 1232.4 | 1902.4 | 1892.3 | 234.23 | 163.54
x1 = 0.7006 | 1240.52 | 1237.44 | 1906.8 | 1896.3 | 322.03 | 220.14
x1 = 0.7465 | 1244.44 | 1241.37 | 1910.2 | 1899.4 | 419.77 | 283.91
x1 = 0.7942 | 1248.13 | 1245.06 | 1913.5 | 1902.3 | 535.66 | 358.24
x1 = 0.8497 | 1251.95 | 1248.81 | 1916.8 | 1905.2 | 705.87 | 463.79
x1 = 0.8993 | 1254.99 | 1251.84 | 1919.1 | 1907 | 897.16 | 584.38
x1 = 0.9196 | 1256.26 | 1253.1 | 1920.6 | 1908.2 | – | –
x1 = 0.9322 | 1256.97 | 1253.82 | 1921.3 | 1908.7 | – | –
x1 = 0.9462 | 1257.78 | 1254.68 | 1922.1 | 1909.8 | 1125.1 | 725.78
x1 = 0.9562 | 1258.3 | 1255.2 | 1922.6 | 1909.8 | – | –
x1 = 0.9855 | 1259.96 | 1256.87 | 1924.3 | 1911 | – | –
x1 = 1 | 1260.73 | 1257.65 | 1925.5 | 1911.9 | 1408.4 | 900.44
